The experiment addresses T1, human RXFP1 (Homo sapiens, UniProt Q9HBX9).
T1 construct: expressed in transfected cells
T1 sequence (Q9HBX9 1-757): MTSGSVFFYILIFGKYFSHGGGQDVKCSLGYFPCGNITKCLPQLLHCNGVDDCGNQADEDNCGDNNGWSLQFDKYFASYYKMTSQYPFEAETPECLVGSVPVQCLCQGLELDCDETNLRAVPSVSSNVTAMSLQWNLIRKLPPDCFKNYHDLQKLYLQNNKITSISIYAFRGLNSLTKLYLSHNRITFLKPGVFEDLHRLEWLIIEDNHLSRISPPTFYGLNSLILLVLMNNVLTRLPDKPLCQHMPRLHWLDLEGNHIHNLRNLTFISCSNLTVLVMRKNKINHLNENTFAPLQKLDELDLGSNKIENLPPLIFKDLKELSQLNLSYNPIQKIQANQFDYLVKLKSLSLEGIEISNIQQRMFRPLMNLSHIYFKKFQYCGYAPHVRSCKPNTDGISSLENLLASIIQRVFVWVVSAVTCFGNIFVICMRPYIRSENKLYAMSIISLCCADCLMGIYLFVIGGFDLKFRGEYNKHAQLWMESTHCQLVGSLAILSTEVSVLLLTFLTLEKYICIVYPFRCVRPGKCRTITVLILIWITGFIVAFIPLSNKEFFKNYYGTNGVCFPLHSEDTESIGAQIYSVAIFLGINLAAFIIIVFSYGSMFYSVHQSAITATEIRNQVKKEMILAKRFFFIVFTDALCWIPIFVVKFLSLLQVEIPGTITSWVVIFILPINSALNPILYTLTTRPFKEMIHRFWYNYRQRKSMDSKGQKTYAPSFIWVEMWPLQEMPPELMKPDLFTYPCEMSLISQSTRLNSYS
Briefly: RXFP1 cAMP assay (hRXFP1 HEK293 cAMP assay, HTRF). It is filed as cell-based. The conditions noted are these: HEK293 cells stably expressing human RXFP1, 30 min at room temperature, read-out: cAMP hRXFP1 HEK293 Assay EC50. The procedure, abridged:
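In a stable human RXFP1 HEK293 line, compounds acted for 30 min at RT in buffer with 0.5 mM IBMX. HTRF then quantified cellular cAMP.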
On the technique in general: Cyclic AMP is a second messenger, typically raised through Gs and lowered through Gi signalling.
Regarding `O=C(NC1CCC1)OC(c1ccc(F)c(-c2ccc(OCCO)c(C(=O)N[C@H]3[C@@H](C(=O)Nc4ccc(F)c(C(F)(F)F)c4)[C@H]4CC[C@@H]3/C4=C\C3CC3)c2)c1)C(F)(F)F` (stereo partly drawn) [Example 253, 1-(3′-(((1R,2R,3S,4R,Z)-7-(cyclopropylmethylene)-3-((4-fluoro-3-(trifluoromethyl)phenyl)carbamoyl)bicyclo[2.2.1]heptan-2-yl)carbamoyl)-6-fluoro-4′-(2-hydroxyethoxy)-[1,1′-biphenyl]-3-yl)-2,2,2-trifluoroethyl cyclobutylcarbamate], the EC50 – broadly, the concentration at which the effect is half-maximal – was 0.017 µM.

For `COc1ccc(-c2cc(C(N[S+]([O-])C(C)(C)C)C(F)(F)F)ccc2F)cc1C(=O)N[C@H]1[C@@H](C(=O)Nc2ccc(F)c(C(F)(F)F)c2)[C@H]2CC[C@@H]1/C2=C\C1CC1` (stereo partly drawn) [Example 256, (1R,2S,3R,4R,Z)-3-(5′-(1-((tert-butylsulfinyl)amino)-2,2,2-trifluoroethyl)-2′-fluoro-4-methoxy-[1,1′-biphenyl]-3-carboxamido)-7-(cyclopropylmethylene)-N-(4-fluoro-3-(trifluoromethyl)phenyl)bicyclo[2.2.1]heptane-2-carboxamide], the EC50 turned out to be 0.014 µM.

Consider `COc1ccc(-c2cc(C(=O)O)ccc2F)cc1C(=O)N[C@H]1[C@@H](CNc2ccc(F)c(C(F)(F)F)c2)[C@H]2CC[C@@H]1/C2=C\C1CC1` [Example 258, 3′-(((1R,2R,3R,4R,Z)-7-(cyclopropylmethylene)-3-(((4-fluoro-3-(trifluoromethyl)phenyl)amino)methyl)bicyclo[2.2.1]heptan-2-yl)carbamoyl)-6-fluoro-4′-methoxy-[1,1′-biphenyl]-3-carboxylic acid], for which the EC50 came to 0.283 µM.

`COc1ccc(C2=CCCN(CC(=O)O)C2)cc1C(=O)N[C@H]1[C@@H](C(=O)Nc2ccc(F)c(C(F)(F)F)c2)[C@H]2CC[C@@H]1/C2=C\C1CC1` [Example 259, 2-(5-(3-(((1R,2R,3S,4R,Z)-7-(cyclopropylmethylene)-3-((4-fluoro-3-(trifluoromethyl)phenyl)carbamoyl)bicyclo[2.2.1]heptan-2-yl)carbamoyl)-4-methoxyphenyl)-3,6-dihydropyridin-1(2H)-yl)acetic acid]: the EC50 came to 0.815 µM.

Turning to `COc1ccc(-c2cc(C(=O)O)ccc2F)cc1C(=O)N[C@H]1[C@@H](C(=O)Nc2ccc(C)c(C(F)(F)F)c2)[C@H]2CC[C@@H]1/C2=C\C1CC1` [Example 265, 3′-(((1R,2R,3S,4R,Z)-7-(cyclopropylmethylene)-3-((4-methyl-3-(trifluoromethyl)phenyl)carbamoyl)bicyclo[2.2.1]heptan-2-yl)carbamoyl)-6-fluoro-4′-methoxy-[1,1′-biphenyl]-3-carboxylic acid], the EC50 amounted to 0.005 µM.

For `COc1ccc(-c2cccnc2)cc1C(=O)N[C@H]1[C@@H](C(=O)Nc2ccc(F)c(C(F)(F)F)c2)[C@H]2CC[C@@H]1/C2=C\C(F)(F)F` [Example 310, (1R,2S,3R,4R,Z)—N-(4-fluoro-3-(trifluoromethyl)phenyl)-3-(2-methoxy-5-(pyridin-3-yl)benzamido)-7-(2,2,2-trifluoroethylidene)bicyclo[2.2.1]heptane-2-carboxamide], the EC50 was 0.162 µM.

On to `O=C(O)c1ccc(F)c(-c2ccc(OCCN3CCOCC3)c(C(=O)N[C@H]3[C@@H](C(=O)Nc4ccc(F)c(C(F)(F)F)c4)[C@H]4CC[C@@H]3/C4=C\C(F)(F)F)c2)c1` [Example 320, 6-fluoro-3′-(((1R,2R,3S,4R,Z)-3-((4-fluoro-3-(trifluoromethyl)phenyl)carbamoyl)-7-(2,2,2-trifluoroethylidene)bicyclo[2.2.1]heptan-2-yl)carbamoyl)-4′-(2-morpholinoethoxy)-[1,1′-biphenyl]-3-carboxylic acid], for which the EC50 amounted to 1.95 µM.

With `COc1ccc(-c2cc(C(=O)O)ccc2F)cc1C(=O)N[C@@H]1C2CCC(/C2=C/C(=O)N(C)C)[C@@H]1C(=O)Nc1ccc(F)c(C(F)(F)F)c1` (stereo partly drawn) [Example 323], the EC50 was determined as 0.854 µM.

As to `COc1ccc(-c2cc(C(=O)O)ccc2F)cc1C(=O)NC1C2CCC(/C2=C/c2cn(C[Si](C)(C)C)nn2)[C@@H]1C(=O)Nc1ccc(F)c(C(F)(F)F)c1` (stereo partly drawn) [Example 325], the EC50 amounted to 4.83 µM.
